Assay: thermal stability: thermal decomposition temperature by thermogravimetry and differential thermal analysis
Assay type: physicochemical
Procedure: For the absorption characteristic, absorption spectra were measured by using a near infrared photospectrometer. Further, for the thermal stability, the thermal decomposition temperature was measured by thermogravimetry and differential thermal analysis. Further, the solubility in organic solvents such as chloroform or acetone was confirmed.

decomposition temperature: 202.7 °C
Structure (SMILES): CC(C)CN(CC(C)C)c1cc(O)c2c(c1)OC(=O)/C2=C(/[O-])C1=C2C(O)=CC(=[N+](CC(C)C)CC(C)C)C=C2OC1=O [compound (1)]
